Results published in ChEMBL document CHEMBL5506073, “Discovery of Novel Ortho-Aminophenol Derivatives Targeting Lipid Peroxidation with Potent Antiferroptotic Activities” (J Med Chem, 2024).
Values belong to the molecule of their own block, whether it stands above or below them. Calls of active or inactive are those of the source. No cut-off for these calls is given here.

Columns and labels:
HT-1080 [1] = test: Inhibition of RSL3-induced ferroptosis in human HT-1080 cells assessed as cell viability incubated for 24 hrs by CCK8 assay; format: functional, cell-based; settings: for EC50: HT-1080, 24 h
[2] = Antioxidant activity assessed as DPPH radical scavenging activity at 20 uM incubated for 30 mins by absorbance based assay; format: functional
HT-1080 [3] = test: Effect on glutathione metabolic pathway in human HT-1080 cells assessed as change in GPX4 mRNA level by qRT-PCR analysis; format: functional, cell-based
Mus musculus [4] = test: Protection against kidney ischemia-reperfusion injury in C57BL/6 mouse model assessed as decrease in renal tubule dilation at 10 mg/kg, ip administered twice 1 hr prior to ischemia onset measured after 24 hrs post-ischemia by H and E staining based analysis; format: functional, organism-based; settings: time 25.0 hrs
KHOS/NP [5] = test: Inhibition of FIN56-induced ferroptosis in human KHOS/NP cells assessed as cell viability at 200 nM incubated for 24 hrs by CCK8 assay; format: functional, cell-based
HT-1080 [6] = test: Inhibition of RSL3-induced ferroptosis in human HT-1080 cells assessed as cell viability at 200 nM incubated for 24 hrs by CCK8 assay; format: functional, cell-based
Mus musculus [7] = test: Protection against kidney ischemia-reperfusion injury in C57BL/6 mouse model assessed as decrease in BUN level at 10 mg/kg, ip administered twice 1 hr prior to ischemia onset measured after 24 hrs post-ischemia; format: functional, organism-based; settings: time 25.0 hrs
Mus musculus [8] = test: (§1) Protection against APAP-induced acute liver injury in overnight fasted C57BL/6 mouse model assessed as decrease in plasma ALT level at 10 mg/kg, ip administered 1 hr prior to APAP treatment measured after 12 hrs post-APAP treatment under continuous fasting condition; format: functional, organism-based; settings: time 13.0 hrs
Mus musculus [9] = test: Protection against kidney ischemia-reperfusion injury in C57BL/6 mouse model assessed as decrease in serum creatinine level at 10 mg/kg, ip administered twice 1 hr prior to ischemia onset measured after 24 hrs post-ischemia; format: functional, organism-based; settings: time 25.0 hrs
HT-1080 [10] = test: Effect on glutathione metabolic pathway in human HT-1080 cells assessed as change in SLC7A11 mRNA level by qRT-PCR analysis; format: functional, cell-based
SW480 [11] = test: Inhibition of RSL3-induced ferroptosis in human SW480 cells assessed as cell viability at 200 nM incubated for 24 hrs by CCK8 assay; format: functional, cell-based
SW480 [12] = test: Inhibition of FIN56-induced ferroptosis in human SW480 cells assessed as cell viability at 200 nM incubated for 24 hrs by CCK8 assay; format: functional, cell-based
HT-1080 [13] = test: Inhibition of ferroptosis in human HT-1080 cells assessed as reversal of RSL3-induced normal morphological loss; format: functional, cell-based
HT-1080 [14] = test: Inhibition of ferroptosis in human HT-1080 cells assessed as reversal of RSL3-induced cell shrinkage; format: functional, cell-based
HT-1080 [15] = test: Inhibition of ferroptosis in human HT-1080 cells assessed as reversal of RSL3-induced swelling; format: functional, cell-based
HTR-8/SVneo [16] = test: Inhibition of FIN56-induced ferroptosis in human HTR-8/SVneo cells assessed as cell viability at 200 nM incubated for 24 hrs by CCK8 assay; format: functional, cell-based
HT-1080 [17] = test: Inhibition of RSL3-induced lipid peroxidation in human HT-1080 cells assessed as reduction in MDA adduct accumulation by ELISA; format: functional, cell-based
HKC [18] = test: Inhibition of FIN56-induced ferroptosis in human HKC cells assessed as cell viability at 200 nM incubated for 24 hrs by CCK8 assay; format: functional, cell-based
Mus musculus [19] = test: Protection against kidney ischemia-reperfusion injury in C57BL/6 mouse model assessed as decrease in cytoplasmic vacuoles in kidney at 10 mg/kg, ip administered twice 1 hr prior to ischemia onset measured after 24 hrs post-ischemia by H and E staining based analysis; format: functional, organism-based; settings: time 25.0 hrs
Mus musculus [20] = test: Protection against APAP-induced acute liver injury in overnight fasted C57BL/6 mouse model assessed as decrease in plasma AST level at 10 mg/kg, ip administered 1 hr prior to APAP treatment measured after 12 hrs post-APAP treatment under continuous fasting condition; format: functional, organism-based; settings: time 13.0 hrs
Mus musculus [21] = test: as §1, with “reduction” for “decrease”, “necrotic areas of liver” for “plasma ALT level”, “condition by H and E staining based analysis” for “condition”; format: functional, organism-based; settings: time 13.0 hrs
Mus musculus [22] = test: Protection against kidney ischemia-reperfusion injury in C57BL/6 mouse model assessed as decrease in KIM-1 level in kidney at 10 mg/kg, ip administered twice 1 hr prior to ischemia onset measured after 24 hrs post-ischemia by IHC analysis; format: functional, organism-based; settings: time 25.0 hrs
Mus musculus [23] = test: Protection against APAP-induced acute liver injury in overnight fasted C57BL/6 mouse model assessed as normal pathology of liver at 10 mg/kg, ip administered 1 hr prior to APAP treatment measured after 12 hrs post-APAP treatment under continuous fasting condition by H and E staining based analysis; format: functional, organism-based; settings: time 13.0 hrs
HT-1080 [24] = test: Inhibition of ferroptosis in human HT-1080 cells assessed as reversal of RSL3-induced membrane rupture; format: functional, cell-based
HT-1080 [25] = test: Inhibition of FIN56-induced ferroptosis in human HT-1080 cells assessed as cell viability at 200 nM incubated for 24 hrs by CCK8 assay; format: functional, cell-based
KHOS/NP [26] = test: Inhibition of RSL3-induced ferroptosis in human KHOS/NP cells assessed as cell viability at 200 nM incubated for 24 hrs by CCK8 assay; format: functional, cell-based
HT-1080 [27] = test: Effect on iron metabolism in human HT-1080 cells assessed as change in FTH1 mRNA level by qRT-PCR analysis; format: functional, cell-based
Mus musculus [28] = test: Protection against kidney ischemia-reperfusion injury in C57BL/6 mouse model assessed as decrease in brush edges loss in kidney at 10 mg/kg, ip administered twice 1 hr prior to ischemia onset measured after 24 hrs post-ischemia by H and E staining based analysis; format: functional, organism-based; settings: time 25.0 hrs
HT-1080 [29] = test: Effect on lipid metabolism in human HT-1080 cells assessed as change in COX2 mRNA level by qRT-PCR analysis; format: functional, cell-based
Mus musculus [30] = test: Protection against APAP-induced acute liver injury in overnight fasted C57BL/6 mouse model assessed as reduction in 4-HNE formation in liver at 10 mg/kg, ip administered 1 hr prior to APAP treatment measured after 12 hrs post-APAP treatment under continuous fasting condition by IHC analysis; format: functional, organism-based; settings: time 13.0 hrs
HK-2 [31] = test: Inhibition of FIN56-induced ferroptosis in human HK-2 cells assessed as cell viability at 200 nM incubated for 24 hrs by CCK8 assay; format: functional, cell-based
HT-1080 [32] = test: Effect on iron metabolism in human HT-1080 cells assessed as change in TFRC mRNA level by qRT-PCR analysis; format: functional, cell-based
HT-1080 [33] = test: Effect on iron metabolism in human HT-1080 cells assessed as change in DMT1 mRNA level by qRT-PCR analysis; format: functional, cell-based
Mus musculus [34] = test: Protection against APAP-induced acute liver injury in overnight fasted C57BL/6 mouse model assessed as reversal of native liver architecture at 10 mg/kg, ip administered 1 hr prior to APAP treatment measured after 12 hrs post-APAP treatment under continuous fasting condition by H and E staining based analysis; format: functional, organism-based; settings: time 13.0 hrs
HT-1080 [35] = test: Inhibition of RSL3-induced lipid peroxidation in human HT-1080 cells assessed as reduction in green fluorescence by C11-BODIPY581/591 probe based analysis; format: functional, cell-based
HT-1080 [36] = test: Effect on lipid metabolism in human HT-1080 cells assessed as change in ACSL4 mRNA level by qRT-PCR analysis; format: functional, cell-based
HT-1080 [37] = test: Effect on lipid metabolism in human HT-1080 cells assessed as change in ALOX15 mRNA level by qRT-PCR analysis; format: functional, cell-based
HTR-8/SVneo [38] = test: Inhibition of RSL3-induced ferroptosis in human HTR-8/SVneo cells assessed as cell viability at 200 nM incubated for 24 hrs by CCK8 assay; format: functional, cell-based
HKC [39] = test: Inhibition of RSL3-induced ferroptosis in human HKC cells assessed as cell viability at 200 nM incubated for 24 hrs by CCK8 assay; format: functional, cell-based
HK-2 [40] = test: Inhibition of RSL3-induced ferroptosis in human HK-2 cells assessed as cell viability at 200 nM incubated for 24 hrs by CCK8 assay; format: functional, cell-based
HT-1080 [41] = test: Inhibition of RSL3-induced ferroptosis in human HT-1080 cells assessed as cell viability at 0.5 uM incubated for 24 hrs by CCK8 assay; format: functional, cell-based
[42] = Antioxidant activity assessed as DPPH radical scavenging activity at 10 uM incubated for 30 mins by absorbance based assay; format: functional

Compound: N#Cc1cccc(/C=N/NC(=O)c2cccc(O)c2N)c1
EC50 (HT-1080 [1]): 727 nM

Compound: Nc1c(O)cccc1C(=O)N/N=C/c1ccc(C(=O)O)cc1
EC50 (HT-1080 [1]): > 1000 nM

Compound: CCOC(=O)c1cccc(O)c1N
inhibition (HT-1080 [1]): Dose-Dependent Effect
EC50 (HT-1080 [1]): 127 nM

Compound: Nc1c(O)cccc1C(=O)N/N=C/c1ccc([N+](=O)[O-])cc1
EC50 (HT-1080 [1]): 649 nM

Compound: CCCOC(=O)c1cccc(O)c1N
inhibition (HT-1080 [41]): Active
Activity [42]: Active
EC50 (HT-1080 [1]): 302 nM

Compound: Nc1c(O)cccc1C(=O)N/N=C/c1ccc[nH]1
EC50 (HT-1080 [1]): 343 nM

Compound: CCOC(=O)c1ccc(NC2CCCCC2)c(N)c1
EC50 (HT-1080 [1]): 203 nM

Second part, led by results:

EC50 (HT-1080 [1]): 603 nM
Compound: Nc1c(O)cccc1-c1nnc(SCc2ccc3ccccc3c2)o1

EC50 (HT-1080 [1]): 348 nM
Compound: Nc1c(O)cccc1-c1nnc(SCc2ccc(F)cc2)o1

EC50 (HT-1080 [1]): 293 nM
Compound: Nc1c(O)cccc1-c1nc2cc(Cl)c(Cl)cc2[nH]1

EC50 (HT-1080 [1]): 181 nM
Compound: Cc1cc2nc(-c3cccc(O)c3N)[nH]c2cc1C
Activity [2]: Active
Activity (HT-1080 [3]): inactive
Activity (Mus musculus [4]): Active
inhibition (KHOS/NP [5]): Active
inhibition (HT-1080 [6]): Active
Activity (Mus musculus [7]): Active
Activity (Mus musculus [8]): Active
Activity (Mus musculus [9]): Active
Activity (HT-1080 [10]): inactive
inhibition (SW480 [11]): Active
inhibition (SW480 [12]): Active
inhibition (HT-1080 [13]): Active
inhibition (HT-1080 [14]): Active
inhibition (HT-1080 [15]): Active
inhibition (HTR-8/SVneo [16]): Active
inhibition (HT-1080 [17]): Active
inhibition (HKC [18]): Active
Activity (Mus musculus [19]): Active
Activity (Mus musculus [20]): Active
Activity (Mus musculus [21]): Active
Activity (Mus musculus [22]): Active
Activity (Mus musculus [23]): Active
inhibition (HT-1080 [24]): Active
inhibition (HT-1080 [25]): Active
inhibition (KHOS/NP [26]): Active
Activity (HT-1080 [27]): inactive
Activity (Mus musculus [28]): Active
Activity (HT-1080 [29]): inactive
Activity (Mus musculus [30]): Active
inhibition (HK-2 [31]): Active
Activity (HT-1080 [32]): inactive
Activity (HT-1080 [33]): inactive
Activity (Mus musculus [34]): Active
inhibition (HT-1080 [35]): Active
Activity (HT-1080 [36]): inactive
Activity (HT-1080 [37]): inactive
inhibition (HTR-8/SVneo [38]): Active
inhibition (HKC [39]): Active
inhibition (HK-2 [40]): Active

EC50 (HT-1080 [1]): 871 nM
Compound: Nc1c(O)cccc1-c1nnc(SCc2ccc([N+](=O)[O-])cc2)o1

EC50 (HT-1080 [1]): 263 nM
Compound: Nc1c(O)cccc1-c1nc2ccccc2[nH]1

EC50 (HT-1080 [1]): 528 nM
Compound: N#Cc1ccc(CSc2nnc(-c3cccc(O)c3N)o2)cc1
